Reference: patent US5162115A, “Antineoplastic solution and method for treating neoplasms” (priority 1991, dated 1992)
“Also recorded” adds a separate entry of the source. Read-outs that look alike come from different tables or passages of the source.

How the values were obtained:
[1] = cited from earlier work
ependymoblastoma = conditions: intratumoral injection(s), up to ten; suspended in 0.4% aqueous methylcellulose in most suitable formulation; cited from earlier work
[2] = delivered systemically; cited from earlier work
[3] = cited from earlier work; remark: listed apart in the source
[4] = Stability of BCNU in ethanol, organic vehicles and aqueous solution; type: physicochemical; conditions: ethanol vehicle of the exemplary solution
Lethal dose of BCNU = type: in vivo; conditions: intraperitoneal BCNU in rats
Procedure: All intratumoral injections used this 66.7 mg/ml formulation directly. This concentration is about three to four logs greater than the tumoricidal dose 50%. […] This cannot be extrapolated to man, however, because of differences in cross-species toxicity.

T9 gliosarcoma [5] = experiment: Survival of rats bearing intracerebral T9 gliosarcoma after intratumoral BCNU solution; type: in vivo, rat (male CDF, Fischer 344); conditions: for % ILS (percent increase in life span): vs control
[6] = cited from earlier work; remark: listed apart in the source
[7] = rat, in vivo; cited from earlier work
[8] = Operative mortality following intratumoral injection; type: in vivo, rat (male CDF, Fischer 344); conditions: following intratumoral BCNU solution injection; 4/72
Procedure: Rats were anesthetized with ether and pentobarbital sodium (25-30 mg/kg) and placed into the stereotactic frame. The clips and bone wax were carefully removed. The BCNU solution was delivered directly into the tumor through a
Hamilton microsyringe set to the same coordinates and using the same technique as used in the initial tumor implantation. As before, the operative field was cleaned with povidone-iodine solution and the scalp was closed with clips.
The following paradigm was used to assess therapeutic efficacy of the intra-tumorally delivered BCNU antineoplastic solution. All animals received tumor implantation on day zero (0). Controls received no treatment, vehicle controls received a single intratumoral injection of absolute ethanol on day 7. One experimental group received a single injection of intratumoral BCN dissolved in absolute ethanol at a dose of 5 mg/kg body weight on day 7.

T9 gliosarcoma [9] = conditions: cited from earlier work
tumor cells = experiment: Tumoricidal dose 50% (TD50) comparison; conditions: 66.7 mg/ml BCNU in absolute ethanol
Description: Operationally, where cytotoxic, the antineoplastic agent is preferably dissolved in the organic solvent to a concentration such that when a therapeutically effective volume of the antineoplastic solution of the invention is delivered into a neoplastic mass, there results a dose of the agent solute in said mass of at least two logs greater than its tumoricidal dose 50% (TD50), that is, the concentration of agent in said mass that kills 50% of the tumor cells. This ensures that a supralethal concentration of the agent is delivered throughout at least a substantial volume of the tumor mass when the resulting antineoplastic solution is injected directly into the substance of the tumor. As the organic vehicle permeates the tumor mass it transports a therapeutically effective, neoplastically lethal concentration of the cytotoxic agent solute therewith. In this way high levels of the cytotoxic antineoplastic agent can be delivered discretely and with relative safety to the tumor mass. In another sense the water miscible organic vehicle component of the solution can be considered to increase the solubility of the agent within the tumor mass, thereby allowing therapeutically effective toxic levels of the antineoplastic agent to invest the tumor. […]

[10] = Group 4: IT BCNU 5 mg/kg day 7 + IP BCNU 5 mg/kg day 12, n=14

In the case of C[C@H]1CC[C@H](NC(=O)N(CCCl)N=O)CC1 [Me-CCNU, 1-(2-chloroethyl)-3-(trans-4-methylcyclohexyl)-1-nitrosourea], the water solubility [1] is given as “water insoluble” and the “increase in life span” value (ependymoblastoma) is given as “only modest increases in life span”.
For O=NN(CCCl)C(=O)NC1CCCCC1 [CCNU, 1-(2-chloroethyl)-3-cyclohexyl-1-nitrosourea], the water solubility [1] is listed as “water insoluble” and the “increase in life span” value (ependymoblastoma) is listed as “only modest increases in life span”.
In the case of bleomycin, the organ specific toxicity [2] is listed as “lung toxicity”.
For O=NN(CCCl)C(=O)NCCCl [BCNU, 1,3-bis(2-chloroethyl)-1-nitrosourea], the “stability in aqueous solution” value ([3]; aqueous solution) is listed as “not very stable in aqueous solution”, the stability in ethanol ([3]; ethanol) is listed as “stable in ethanol” and the “stability in organic water miscible solvent vehicles” value ([3]; organic water miscible solvent vehicles, compared with aqueous solution) is listed as “far more stable in the organic water miscible solvent vehicles”. For the same compound, the solubility in ethanol [4] was “soluble to highly cytotoxic levels in ethanol”, the “stability and bioavailability in ethanol” value [4] was “remains stable and bioavailable therein” and the “dose of 5 mg/kg as percentage of the LD10” value (Lethal dose of BCNU) was about 40%. For the same compound, the “% ILS (percent increase in life span)” value (T9 gliosarcoma [5]; Group 3: single IT BCNU 5 mg/kg in absolute ethanol, day 7, n=42) was 322%, the “% Cures” value (T9 gliosarcoma [5]; Group 3: single IT BCNU 5 mg/kg, day 7, n=42) was 43% and the “MDS (median day of survival following tumor implantation)” value (“MDS” below) (T9 gliosarcoma [5]; Group 3: single intratumoral (IT) injection of BCNU in absolute ethanol, 5 mg/kg, day 7, n=42) was 76 days. The “% Cures” value (T9 gliosarcoma [5]; [10]) was 36%, the “% ILS (percent increase in life span)” value (T9 gliosarcoma [5]; [10]) was 472% and the “MDS” value (T9 gliosarcoma [5]; Group 4: IT BCNU in absolute ethanol 5 mg/kg day 7 + IP BCNU 5 mg/kg in 7.5% aqueous ethanol day 12, n=14) was 103 days. The “animals living a normal lifespan” value (T9 gliosarcoma [5]; Groups 3 + 4, 600-700 days) was “nineteen”, the “animals sacrificed healthy, no observable viable T9 gliosarcoma” value (T9 gliosarcoma [5]; Groups 3 + 4, days 121, 136, 307, 384) was “four” and the “% Cures” value (T9 gliosarcoma [5]; Groups 3 + 4 combined, n=56) was 41%. The “MDS” value (T9 gliosarcoma [5]; Groups 3 + 4 combined, n=56) was 96 days, the “% ILS (percent increase in life span)” value (T9 gliosarcoma [5]; Groups 3 + 4 combined, n=56) was 433% and the “therapeutic benefit of adding intraperitoneal BCNU to intratumoral BCNU solution” value (T9 gliosarcoma [5]; IT + IP vs IT only) was “did not statistically enhance the therapeutic benefit”. The “animals which live a normal life span” value (T9 gliosarcoma [5]; intratumoral BCNU solution treated group, 600-700 days) was 41%, the “animals that die, phase one” value (T9 gliosarcoma [5]; intratumoral BCNU solution treated group, days 18-24) was 23% and the “animals that die, second phase” value (T9 gliosarcoma [5]; intratumoral BCNU solution treated group, days 25 to 166) was 30%. For the same compound, the “animals that die, third phase” value (T9 gliosarcoma [5]; intratumoral BCNU solution treated group, days 251-325) was 5%, the “half life in serum” value [6] was “about 15 minutes” and the water solubility [1] was “inherently low water solubility”. The “lethal dose 10%” value [7] was 13.3 mg/kg, the Operative mortality [8] was 5.5% and the ILS (T9 gliosarcoma [9]; BCNU 5 mg/kg, delivered intra-arterially) was 57%. The “improvement in life span” value (T9 gliosarcoma [9]; BCNU 5 mg/kg, delivered systemically) was “no improvement in life span”, the ILS (T9 gliosarcoma [9]; BCNU 13.3 mg/kg, delivered intravenously or intra-arterially) was 180% and the “cures in animals bearing this tumor, prior to this experiment” value (T9 gliosarcoma [9]; any mode of delivery previously known) was “neither BCNU nor any other antineoplastic agent has ever produced cures in animals bearing this tumor; also recorded: neither BCNU nor any other single antineoplastic agent has ever been known to produce a single cure in this tumor model”. The “concentration of the formulation above the tumoricidal dose 50%” value (tumor cells) was “about three to four”.
For COc1cccc2c1C(=O)c1c(O)c3c(c(O)c1C2=O)C[C@@](O)(C(=O)CO)C[C@@H]3O[C@H]1C[C@H](N)[C@H](O)[C@H](C)O1 [adriamycin], the organ specific toxicity [2] is listed as “cardiotoxicity”.
